Laboratory results as given in patent US20100041672A1, “USE OF QUINOLINE DERIVATIVES IN THE TREATMENT OF PAIN AND IRRITABLE BOWEL SYNDROME” (GLAXO GROUP LIMITED, priority 2007, published 2010).

Experiments:
[1] = system: Random Hooded rats; assay: rat joint pain model of chronic inflammatory pain (intra-articular FCA, hind paw weight bearing); assay type: in vivo; details: for Statistics for hypersensitivity data (weight bearing), significance vs vehicle, Day 13: Day 13 post FCA; for Statistics for hypersensitivity data (weight bearing), significance vs vehicle, Day 17: Day 17 post FCA; for Statistics for hypersensitivity data (weight bearing), significance vs vehicle, Day 14: Day 14 post FCA; for Statistics for hypersensitivity data (weight bearing), significance vs vehicle, Day 15: Day 15 post FCA; for Statistics for hypersensitivity data (weight bearing), significance vs vehicle, Day 16: Day 16 post FCA; for effect on hypersensitivity in the joint pain model of chronic inflammatory pain: once daily oral dosing days 13-17 post intra-articular FCA
Protocol: Random Hooded rats, 150-180 g, obtained from Charles River UK, were anaesthetised under gaseous anaesthetic and the area surrounding the left and right knee joint shaved and cleaned as for aseptic surgery. Animals were injected with 150 μl of FCA into the left knee joint (intra-articular injection). Animals were immediately allowed to recover from anaesthetic in a warmed/oxygenated environment until being returned to their home cage on paper bedding. No further post-op care was provided.
(§1) Rats were tested prior to surgery and from 18 h post FCA (minimum of once weekly) for weight bearing (g) and joint diameter (mm). Weight bearing is measured by the animal's ability to place body weight across both hind paws on a Dual Channel Weight Averager which was calibrated each day prior to use using a 10 g weight (Rat capacitance tester—Linton Instruments). Hind paw weight bearing data was calculated and expressed as the percentage of the contralateral paw.
All data were expressed as mean±s.e.m.
(§2) Prior to FCA intra-articular injection into the left knee, rats display even weight bearing. By day 1 post-insult weight bearing had shifted such that the majority of the body weight was transmitted through the contralateral limb. By day 10 this effect was maintained and at this point animals were randomised across treatment groups. Once daily dosing with vehicle, SB742457 or celecoxib began on day 13 and continued up to and including day 17.
as §1, with “100” for “10”
as §2, with “SB792988A” for “SB742457”, “17. […] AUC was calculated using Microsoft Excel.” for “17.”

[2] = system: male Sprague Dawley rats; assay: rat intra rectal mustard oil model of visceral pain; assay type: in vivo; details: for reduction in behaviours compared to vehicle treated animals: behaviours counted 25 minutes; for statistical significance of reduction in behaviours vs vehicle: orally 60 minutes prior to mustard oil, all doses examined
Protocol: All behavioural responses consistent with the presence of pain were determined following intra rectal injection of mustard oil in male Sprague Dawley rats. Typical behavioural responses consistent with the presence of pain following intra-colonic mustard oil injection include: arching, abdominal lifting, abdominal tensing, stretching, extending the rear leg (when lying down), raising and lowering the testicles, tip-toeing and writhing.
Male Sprague Dawley rats (130 g-160 g) were briefly sedated with 50% oxygen/50% carbon dioxide and 0.2 ml of 3% mustard oil injected into the colorectum, 1.5 cm from the anus. The anus was plugged with vaseline and animals placed in observational cages to which they had previously been acclimatised for 45 minutes prior to mustard oil injection. The number of visceral pain related behaviours, which consisted primarily of abdominal arching, were counted over a 25 minute period and the animals culled by cervical dislocation.
In separate studies, the effects of alosetron (0.1, 0.3 and 1.0 mg/kg n=10 per group), gabapentin (10, 30 and 100 mg/kg n=10 per group) and amitriptyline (3, 10 and 30 mg/kg n=9-10 per group) or vehicle (saline for alosetron and amitriptyline 10% 1-Methyl-2-pyrolidone in saline for gabapentin n=10 per study) given sub cutaneously 15 minutes prior to injection of 3% mustard oil were examined on pain behaviour. Results in FIGS. 4, 5 and 6 are expressed as mean±sem percentage of behaviours compared to vehicle treated animals and were statistically compared to vehicle treated animals using a one way ANOVA with Dunnett's comparison, p<0.05 considered significant.
The effect of SB742457 (0.03, 0.1, 1.0, 3.0 and 10 mg/kg, n=10 per group for the 0.03, 0.1 and 10 mg/kg groups, and n=20 for the 1.0 and 3.0 mg/kg groups) or vehicle (saline n=20) given orally 60 minutes prior to injection of mustard oil (3% mustard oil, 70% ethanol in saline) were examined on pain behaviour. The total number of visceral pain related behaviours, which consisted primarily of abdominal arching, were counted over a 25 minute period and the animals culled by cervical dislocation. Behaviours were normalised as the percentage of the vehicle group mean and expressed as mean+/−sem. Data was combined from two studies and normalised as the percentage of the vehicle group mean for each individual study and expressed as mean+/−sem for both studies. Percentage of behaviours compared to vehicle treated animals were analysed statistically using a one way ANOVA with Dunnett's comparison, p<0.05 considered significant, FIG. 10.
The effect of SB792988A (0.03, 0.1, 0.3, 1.0, 3.0 and 10 mg/kg, n=9 for 1.0 mg/kg, n=10 per group for the 0.03, 0.1 and 3.0 mg/kg groups, n=20 per group for the 0.3 and 10 mg/kg groups) or vehicle (saline n=20) given orally 60 minutes prior to injection of mustard oil (3% mustard oil, 70% ethanol in saline) were examined on pain behaviour. The total number of visceral pain related behaviours, which consisted primarily of abdominal arching, were counted over a 25 minute period and the animals culled by cervical dislocation. Behaviours were normalised as the percentage of the vehicle group mean and expressed as mean+/−sem. Data was combined from two studies and normalised as the percentage of the vehicle group mean for each individual study and expressed as mean+/−sem for both studies. Percentage of behaviours compared to vehicle treated animals were analysed statistically using a one way ANOVA with Dunnett's comparison, p<0.05 considered significant, FIG. 11.

[3] = 0.1 mg/kg oral once daily from day 13, SB792988A study
[4] = 1 mg/kg oral once daily from day 13, SB792988A study
[5] = 3 mg/kg oral once daily from day 13, SB792988A study
[6] = 10 mg/kg oral once daily from day 13, SB792988A study
[7] = 0.03 mg/kg orally 60 minutes prior to mustard oil
[8] = 0.1 mg/kg orally 60 minutes prior to mustard oil
[9] = 1.0 mg/kg orally 60 minutes prior to mustard oil
[10] = 3.0 mg/kg orally 60 minutes prior to mustard oil
[11] = 10 mg/kg orally 60 minutes prior to mustard oil
[12] = 1 mg/kg oral once daily from day 13
[13] = 10 mg/kg oral once daily from day 13

SMILES: Cl.O=S(=O)(c1cccc(F)c1)c1cnc2c(N3CCNCC3)cccc2c1 [SB792988A, 3-[(3-Fluorophenyl)sulfonyl]-8-(1-piperazinyl)quinoline Hydrochloride]
- Statistics for hypersensitivity data (weight bearing), significance vs vehicle, Day 13 [1, 3]: * (* = p < 0.05)
- Statistics for hypersensitivity data (weight bearing), significance vs vehicle, Day 17 [1, 3]: * (* = p < 0.05)
- Statistics for hypersensitivity data (weight bearing), significance vs vehicle, Day 14 [1, 4]: * (* = p < 0.05)
- Statistics for hypersensitivity data (weight bearing), significance vs vehicle, Day 17 [1, 4]: * (* = p < 0.05)
- Statistics for hypersensitivity data (weight bearing), significance vs vehicle, Day 13 [1, 5]: ** (** = p < 0.01)
- Statistics for hypersensitivity data (weight bearing), significance vs vehicle, Day 15 [1, 5]: *** (*** = p < 0.001)
- Statistics for hypersensitivity data (weight bearing), significance vs vehicle, Day 16 [1, 5]: * (* = p < 0.05)
- Statistics for hypersensitivity data (weight bearing), significance vs vehicle, Day 17 [1, 5]: *** (*** = p < 0.001)
- Statistics for hypersensitivity data (weight bearing), significance vs vehicle, Day 14 [1, 6]: *** (*** = p < 0.001)
- Statistics for hypersensitivity data (weight bearing), significance vs vehicle, Day 15 [1, 6]: *** (*** = p < 0.001)
- Statistics for hypersensitivity data (weight bearing), significance vs vehicle, Day 16 [1, 6]: *** (*** = p < 0.001)
- Statistics for hypersensitivity data (weight bearing), significance vs vehicle, Day 17 [1, 6]: *** (*** = p < 0.001)
- separation from vehicle ([1]; all doses (0.1, 1, 3, 10 mg/kg)): significant separation from vehicle on various days
- effect compared with the positive control, celecoxib ([1]; highest doses of 3 and 10 mg/kg vs 30 mg/kg celecoxib): not statistically different
- effect on hypersensitivity in the joint pain model of chronic inflammatory pain [1]: reversed hypersensitivity
- reduction in behaviours compared to vehicle treated animals [2, 7]: 38%
- reduction in behaviours compared to vehicle treated animals [2, 8]: 40%
- reduction in behaviours compared to vehicle treated animals ([2]; 0.3 mg/kg orally 60 minutes prior to mustard oil): 42%
- reduction in behaviours compared to vehicle treated animals [2, 9]: 55%
- reduction in behaviours compared to vehicle treated animals [2, 10]: 65%
- reduction in behaviours compared to vehicle treated animals [2, 11]: 74%
- statistical significance of reduction in behaviours vs vehicle [2]: statistically significant from vehicle treated animals at all doses examined

SMILES: O=S(=O)(c1ccccc1)c1cnc2c(N3CCNCC3)cccc2c1 [SB742457, 3-Phenylsulfonyl-8-piperazin-1-yl-quinoline]
- Statistics for hypersensitivity data (weight bearing), significance vs vehicle, Day 17 ([1]; 0.1 mg/kg oral once daily from day 13): ** (** = p < 0.01)
- Statistics for hypersensitivity data, significance vs vehicle, AUC ([1]; 1 mg/kg oral once daily days 13-17): *** (*** = p < 0.001)
- Statistics for hypersensitivity data (weight bearing), significance vs vehicle, Day 15 [1, 12]: *** (*** = p < 0.001)
- Statistics for hypersensitivity data (weight bearing), significance vs vehicle, Day 17 [1, 12]: *** (*** = p < 0.001)
- Statistics for hypersensitivity data, significance vs vehicle, AUC ([1]; 10 mg/kg oral once daily days 13-17): *** (*** = p < 0.001)
- Statistics for hypersensitivity data (weight bearing), significance vs vehicle, Day 14 [1, 13]: ** (** = p < 0.01)
- Statistics for hypersensitivity data (weight bearing), significance vs vehicle, Day 15 [1, 13]: *** (*** = p < 0.001)
- Statistics for hypersensitivity data (weight bearing), significance vs vehicle, Day 17 [1, 13]: *** (*** = p < 0.001)
- separation from vehicle ([1]; all doses above and including 0.1 mg/kg): significant separation from vehicle on at least one day
- effect compared with the positive control, celecoxib ([1]; highest dose of 10 mg/kg vs 30 mg/kg celecoxib): not statistically different
- effect on hypersensitivity in the joint pain model of chronic inflammatory pain [1]: reversed hypersensitivity
- reduction in behaviours compared to vehicle treated animals [2, 7]: 56%
- reduction in behaviours compared to vehicle treated animals [2, 8]: 56%
- reduction in behaviours compared to vehicle treated animals [2, 9]: 44%
- reduction in behaviours compared to vehicle treated animals [2, 10]: 50%
- reduction in behaviours compared to vehicle treated animals [2, 11]: 62%
- statistical significance of reduction in behaviours vs vehicle [2]: statistically significant from vehicle treated animals at all doses examined
